# Results published in PubChem BioAssay AID2060910 (Molecular Pharmacology Branch, DTP, NCI, 2025).
# Tested on: 242566-281-R-J2-PDC complex spheroid viability
# Experiment: Anticancer human tumor 242566-281-R-J2-PDC patient-derived pancreatic carcinoma cell line growth inhibition [RAS]
# Settings: for IC50: curve of first compound; for viability, T/C: stronger effect = lower value
# Outline: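 Multi-cell-type spheroids: tumor cells plus HUVEC endothelial cells and mesenchymal stem cells. RAS-pathway inhibitors were combined with targeted agents, each dosed in half-log steps down from clinical Cmax, or from 10 microM when Cmax was unknown.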
# [1] = second compound 0.000949 µM, first compound 0.0316 µM
# [2] = second compound 0.000949 µM, first compound 0.1 µM
# [3] = second compound 0.000949 µM, first compound 0.316 µM
# [4] = second compound 0.000949 µM, first compound 1 µM
# [5] = second compound 0.000949 µM, first compound 3.16 µM
# [6] = second compound 0.000949 µM, first compound 10 µM
# [7] = second compound 0.003 µM, first compound 0.0316 µM
# [8] = second compound 0.003 µM, first compound 0.1 µM
# [9] = second compound 0.003 µM, first compound 0.316 µM
# [10] = second compound 0.003 µM, first compound 1 µM
# [11] = second compound 0.003 µM, first compound 3.16 µM
# [12] = second compound 0.003 µM, first compound 10 µM
# [13] = second compound 0.00949 µM, first compound 0.0316 µM
# [14] = second compound 0.00949 µM, first compound 0.1 µM
# [15] = second compound 0.00949 µM, first compound 0.316 µM
# [16] = second compound 0.00949 µM, first compound 1 µM
# [17] = second compound 0.00949 µM, first compound 3.16 µM
# [18] = second compound 0.00949 µM, first compound 10 µM
# [19] = second compound 0.03 µM, first compound 0.0316 µM
# [20] = second compound 0.03 µM, first compound 0.1 µM
# [21] = second compound 0.03 µM, first compound 0.316 µM
# [22] = second compound 0.03 µM, first compound 1 µM
# [23] = second compound 0.03 µM, first compound 3.16 µM
# [24] = second compound 0.03 µM, first compound 10 µM
# [25] = second compound 0.0949 µM, first compound 0.0316 µM
# [26] = second compound 0.0949 µM, first compound 0.1 µM
# [27] = second compound 0.0949 µM, first compound 0.316 µM
# [28] = second compound 0.0949 µM, first compound 1 µM
# [29] = second compound 0.0949 µM, first compound 3.16 µM
# [30] = second compound 0.0949 µM, first compound 10 µM
# [31] = second compound 0.3 µM, first compound 0.0316 µM
# [32] = second compound 0.3 µM, first compound 0.1 µM
# [33] = second compound 0.3 µM, first compound 0.316 µM
# [34] = second compound 0.3 µM, first compound 1 µM
# [35] = second compound 0.3 µM, first compound 3.16 µM
# [36] = second compound 0.3 µM, first compound 10 µM
# 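Also: spheroids exposed to compound for 7 days before readout.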
# 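For viability, T/C in this document: 100% = DMSO vehicle control wells.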
smiles,measurement,setting,value
Cc1nc(N2CCC3(CC2)COC(C)C3N)c(CO)nc1Sc1ccnc(N)c1Cl (stereo unspecified) + CCn1c(-c2cccnc2C(C)OC)c2c3cc(ccc31)N1CCOC(CC(NC(=O)C(C(C)C)N(C)C(=O)C3(F)CCN(C(=O)C#CC(C)(C)N(C)C)CC3)C(=O)N3CCCC(N3)C(=O)OCC(C)(C)C2)C1,IC50,second compound 0.000949 µM,> 10000 nM
same,IC50,second compound 0.003 µM,> 10000 nM
same,IC50,second compound 0.00949 µM,> 10000 nM
same,IC50,second compound 0.03 µM,> 10000 nM
same,IC50,second compound 0.0949 µM,> 10000 nM
same,IC50,second compound 0.3 µM,> 10000 nM
same,"viability, T/C",[1],94.9%
same,"viability, T/C",[2],93.2%
same,"viability, T/C",[3],63.1%
same,"viability, T/C",[4],77.4%
same,"viability, T/C",[5],71.5%
same,"viability, T/C",[6],53.4%
same,"viability, T/C",[7],102%
same,"viability, T/C",[8],80%
same,"viability, T/C",[9],80%
same,"viability, T/C",[10],81.5%
same,"viability, T/C",[11],74%
same,"viability, T/C",[12],52.8%
same,"viability, T/C",[13],98.8%
same,"viability, T/C",[14],73.4%
same,"viability, T/C",[15],67.3%
same,"viability, T/C",[16],71%
same,"viability, T/C",[17],67.1%
same,"viability, T/C",[18],68.6%
same,"viability, T/C",[19],97.6%
same,"viability, T/C",[20],85.5%
same,"viability, T/C",[21],82%
same,"viability, T/C",[22],73.7%
same,"viability, T/C",[23],60.7%
same,"viability, T/C",[24],61.6%
same,"viability, T/C",[25],75.1%
same,"viability, T/C",[26],77.3%
same,"viability, T/C",[27],79.7%
same,"viability, T/C",[28],71.1%
same,"viability, T/C",[29],54.3%
same,"viability, T/C",[30],61.9%
same,"viability, T/C",[31],73.7%
same,"viability, T/C",[32],72.8%
same,"viability, T/C",[33],61.5%
same,"viability, T/C",[34],50.5%
same,"viability, T/C",[35],49.9%
same,"viability, T/C",[36],51.5%
NC1c2ccccc2OC12CCN(c1cnc3c(N4CCCc5ncccc54)n[nH]c3n1)CC2 (stereo unspecified) + CCn1c(-c2cccnc2C(C)OC)c2c3cc(ccc31)N1CCOC(CC(NC(=O)C(C(C)C)N(C)C(=O)C3(F)CCN(C(=O)C#CC(C)(C)N(C)C)CC3)C(=O)N3CCCC(N3)C(=O)OCC(C)(C)C2)C1,IC50,second compound 0.000949 µM,2280 nM
same,IC50,second compound 0.003 µM,2040 nM
same,IC50,second compound 0.00949 µM,3210 nM
same,IC50,second compound 0.03 µM,1850 nM
same,IC50,second compound 0.0949 µM,1120 nM
same,IC50,second compound 0.3 µM,329 nM
same,"viability, T/C",[1],89.6%
same,"viability, T/C",[2],80.3%
same,"viability, T/C",[3],54.3%
same,"viability, T/C",[4],64.5%
same,"viability, T/C",[5],57.4%
same,"viability, T/C",[6],28.6%
same,"viability, T/C",[7],92.4%
same,"viability, T/C",[8],76.2%
same,"viability, T/C",[9],62.7%
same,"viability, T/C",[10],62.4%
same,"viability, T/C",[11],54.4%
same,"viability, T/C",[12],25.5%
same,"viability, T/C",[13],82.3%
same,"viability, T/C",[14],77.1%
same,"viability, T/C",[15],69.1%
same,"viability, T/C",[16],64.6%
same,"viability, T/C",[17],51.9%
same,"viability, T/C",[18],28.3%
same,"viability, T/C",[19],91%
same,"viability, T/C",[20],81.3%
same,"viability, T/C",[21],69.8%
same,"viability, T/C",[22],59.6%
same,"viability, T/C",[23],41.1%
same,"viability, T/C",[24],36.8%
same,"viability, T/C",[25],75.1%
same,"viability, T/C",[26],71.7%
same,"viability, T/C",[27],62%
same,"viability, T/C",[28],55%
same,"viability, T/C",[29],33.3%
same,"viability, T/C",[30],26.5%
same,"viability, T/C",[31],68.2%
same,"viability, T/C",[32],56.4%
same,"viability, T/C",[33],52.8%
same,"viability, T/C",[34],38.9%
same,"viability, T/C",[35],33.5%
same,"viability, T/C",[36],21.1%
Nc1ccn(C2OC(CO)C(O)C2(F)F)c(=O)n1 (stereo unspecified) + CCn1c(-c2cccnc2C(C)OC)c2c3cc(ccc31)N1CCOC(CC(NC(=O)C(C(C)C)N(C)C(=O)C3(F)CCN(C(=O)C#CC(C)(C)N(C)C)CC3)C(=O)N3CCCC(N3)C(=O)OCC(C)(C)C2)C1,IC50,second compound 0.000949 µM,53 nM
same,IC50,second compound 0.003 µM,72.2 nM
same,IC50,second compound 0.00949 µM,90.1 nM
same,IC50,second compound 0.03 µM,67.9 nM
same,IC50,second compound 0.0949 µM,75.3 nM
same,IC50,second compound 0.3 µM,50.5 nM
same,"viability, T/C","second compound 0.000949 µM, first compound 0.00316 µM",114%
same,"viability, T/C","second compound 0.000949 µM, first compound 0.01 µM",88%
same,"viability, T/C",[1],50.5%
same,"viability, T/C",[2],45.3%
same,"viability, T/C",[3],23.3%
same,"viability, T/C",[4],11.2%
same,"viability, T/C","second compound 0.003 µM, first compound 0.00316 µM",104%
same,"viability, T/C","second compound 0.003 µM, first compound 0.01 µM",87.2%
same,"viability, T/C",[7],71.2%
same,"viability, T/C",[8],42%
same,"viability, T/C",[9],21.2%
same,"viability, T/C",[10],11.6%
same,"viability, T/C","second compound 0.00949 µM, first compound 0.00316 µM",104%
same,"viability, T/C","second compound 0.00949 µM, first compound 0.01 µM",92.3%
same,"viability, T/C",[13],81.2%
same,"viability, T/C",[14],46.6%
same,"viability, T/C",[15],21.6%
same,"viability, T/C",[16],13.2%
same,"viability, T/C","second compound 0.03 µM, first compound 0.00316 µM",101%
same,"viability, T/C","second compound 0.03 µM, first compound 0.01 µM",96%
same,"viability, T/C",[19],68.5%
same,"viability, T/C",[20],41.9%
same,"viability, T/C",[21],16.4%
same,"viability, T/C",[22],12%
same,"viability, T/C","second compound 0.0949 µM, first compound 0.00316 µM",86.4%
same,"viability, T/C","second compound 0.0949 µM, first compound 0.01 µM",87.1%
same,"viability, T/C",[25],64.7%
same,"viability, T/C",[26],49.2%
same,"viability, T/C",[27],14.1%
same,"viability, T/C",[28],13.4%
same,"viability, T/C","second compound 0.3 µM, first compound 0.00316 µM",91.7%
same,"viability, T/C","second compound 0.3 µM, first compound 0.01 µM",81.8%
same,"viability, T/C",[31],65.6%
same,"viability, T/C",[32],28.4%
same,"viability, T/C",[33],15.5%
same,"viability, T/C",[34],10.1%
